Non-standard residues stand in square brackets, D forms with d. Residues, ends and D or L forms follow the SMILES beside them. *: point of attachment. Phe(4-guanidino) = N=C(N)Nc1ccc(C[C@H](N)C(=O)O)cc1; Trp(6-OMe) = COc1ccc2c(C[C@H](N)C(=O)O)c[nH]c2c1; Trp(5-OH) = N[C@@H](Cc1c[nH]c2ccc(O)cc12)C(=O)O; NHPh(4-CH2-morpholino) = c1cc(N*)ccc1CN1CCOCC1; NH(4-morpholinophenyl) = c1cc(N2CCOCC2)ccc1N*; Trp(7-aza) = N[C@@H](Cc1c[nH]c2ncccc12)C(=O)O; Bip = N[C@@H](Cc1ccc(-c2ccccc2)cc1)C(=O)O; 1Nal = N[C@@H](Cc1cccc2ccccc12)C(=O)O; 2Nal = N[C@@H](Cc1ccc2ccccc2c1)C(=O)O; d(hArg) = N=C(N)NCCCC[C@@H](N)C(=O)O; hArg = N=C(N)NCCCC[C@H](N)C(=O)O; X4 = COc1cc(CN*)cc(OC)c1; NHPh = c1ccc(N*)cc1; GABA = NCCCC(=O)O; X1 = Oc1ccccc1CN*; X2 = Oc1ccccc1N*; X3 = Oc1cccnc1N*
What was measured:
Ephrin type-A receptor 4 [1] = biological target: T1, Ephrin type-A receptor 4 (Homo sapiens, UniProt P54764); assay: Binding affinity to N-terminal His tagged EphA4 LBD (unknown origin) (29 to 209 residues) expressed in Rosetta-Gami B(DE3) cells by isothermal titration calorimetry
T1 sequence (P54764 whole entry, the tested form may be a part): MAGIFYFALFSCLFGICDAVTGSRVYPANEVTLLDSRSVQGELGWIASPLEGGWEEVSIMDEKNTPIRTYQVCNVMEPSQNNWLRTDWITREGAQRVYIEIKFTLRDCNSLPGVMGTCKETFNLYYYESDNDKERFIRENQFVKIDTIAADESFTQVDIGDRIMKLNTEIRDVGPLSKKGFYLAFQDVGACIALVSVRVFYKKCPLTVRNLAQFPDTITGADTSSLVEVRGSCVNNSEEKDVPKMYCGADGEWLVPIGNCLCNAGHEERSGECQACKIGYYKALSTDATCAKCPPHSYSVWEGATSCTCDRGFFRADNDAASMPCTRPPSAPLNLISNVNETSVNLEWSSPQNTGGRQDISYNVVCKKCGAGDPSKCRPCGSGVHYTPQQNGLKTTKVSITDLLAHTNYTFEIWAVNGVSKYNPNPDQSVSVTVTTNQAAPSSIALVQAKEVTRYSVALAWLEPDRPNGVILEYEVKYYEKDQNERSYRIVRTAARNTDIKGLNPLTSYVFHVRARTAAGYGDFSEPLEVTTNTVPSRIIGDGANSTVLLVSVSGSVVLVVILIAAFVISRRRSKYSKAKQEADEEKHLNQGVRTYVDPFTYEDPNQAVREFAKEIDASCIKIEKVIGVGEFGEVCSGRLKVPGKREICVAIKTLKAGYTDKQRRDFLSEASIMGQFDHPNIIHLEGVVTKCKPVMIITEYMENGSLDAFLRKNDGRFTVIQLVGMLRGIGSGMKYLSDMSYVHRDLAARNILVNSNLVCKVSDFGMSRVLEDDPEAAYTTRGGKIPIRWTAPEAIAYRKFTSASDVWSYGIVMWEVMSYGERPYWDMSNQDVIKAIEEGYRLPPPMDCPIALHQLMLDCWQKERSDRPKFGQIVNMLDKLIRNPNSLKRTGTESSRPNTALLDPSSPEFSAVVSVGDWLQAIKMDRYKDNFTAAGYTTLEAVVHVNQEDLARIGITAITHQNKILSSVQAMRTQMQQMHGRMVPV

Ephrin type-A receptor 4 [2] = biological target: T1, Ephrin type-A receptor 4
Description: Binding affinity to N-terminal His tagged EphA4 LBD (unknown origin) (29 to 209 residues) expressed in Rosetta-Gami B(DE3) cells assessed as change in entropy by isothermal titration calorimetry

Ephrin type-A receptor 4 [3] = biological target: T1, Ephrin type-A receptor 4; remark: listed apart in the source
Description: Binding affinity to N-terminal His tagged EphA4 LBD (unknown origin) (29 to 209 residues) expressed in Rosetta-Gami B(DE3) cells assessed as change in enthalpy by isothermal titration calorimetry

Structure (SMILES) | Kd (Ephrin type-A receptor 4 [1]) | -TdeltaS (Ephrin type-A receptor 4 [2]) | deltaH (Ephrin type-A receptor 4 [3])
N=C(N)NCCCC[C@H](NC(=O)[C@H](Cc1ccc(-c2ccc(Cl)cc2)cc1)NC(=O)[C@H](Cc1c[nH]c2ccc(O)cc12)NC(=O)CCCN)C(N)=O | 749 nM | 2 kcal/mol | -10.4 kcal/mol
N=C(N)NCCCC[C@H](NC(=O)[C@H](Cc1ccc(-c2ccccc2)cc1)NC(=O)[C@H](Cc1c[nH]c2ccc(O)cc12)NC(=O)[C@H]1CC[C@H](N)C1)C(N)=O | 1120 nM | 0.21 kcal/mol | -8.33 kcal/mol
N=C(N)NCCCC[C@H](NC(=O)[C@H](Cc1ccc(-c2ccccc2)cc1)NC(=O)[C@H](Cc1c[nH]c2ccc(O)cc12)NC(=O)[C@@H]1CCC[C@@H](N)C1)C(N)=O | 1210 nM | 1.32 kcal/mol | -9.39 kcal/mol
N=C(N)NCCCC[C@H](NC(=O)[C@H](Cc1ccc(-c2ccccc2)cc1)NC(=O)[C@H](Cc1c[nH]c2ccc(O)cc12)NC(=O)CCCN)C(=O)NCC(=O)Nc1ccc(N2CCOCC2)cc1 (H-[GABA][Trp(5-OH)][Bip][hArg]G-{NH(4-morpholinophenyl)}) | 94 nM | 1.63 kcal/mol | -11.2 kcal/mol
N=C(N)NCCCC[C@H](NC(=O)[C@H](Cc1cccc2ccccc12)NC(=O)[C@H](Cc1c[nH]c2ccc(O)cc12)NC(=O)CCCN)C(N)=O (H-[GABA][Trp(5-OH)][1Nal][hArg]-NH2) |  | 1.46 kcal/mol | -8.22 kcal/mol
Cc1ccccc1-c1ccc(C[C@H](NC(=O)[C@H](Cc2c[nH]c3ccc(O)cc23)NC(=O)CCCN)C(=O)N[C@@H](CCCCNC(=N)N)C(N)=O)cc1 | 362 nM | 3.29 kcal/mol | -12.1 kcal/mol
N=C(N)NCCCC[C@H](NC(=O)[C@H](Cc1ccc2ccccc2c1)NC(=O)[C@H](Cc1c[nH]c2ccc(O)cc12)NC(=O)CCCN)C(N)=O (H-[GABA][Trp(5-OH)][2Nal][hArg]-NH2) | 5250 nM | 1.27 kcal/mol | -8.49 kcal/mol
N=C(N)NCCCC[C@H](NC(=O)[C@H](Cc1ccc(-c2ccccc2)cc1)NC(=O)[C@H](Cc1c[nH]c2ccc(O)cc12)NC(=O)CCCN)C(=O)NCC(=O)NCc1ccccc1O (H-[GABA][Trp(5-OH)][Bip][hArg]G-X1) | 258 nM | 3 kcal/mol | -12 kcal/mol
N=C(N)NCCCC[C@H](NC(=O)[C@H](Cc1ccc(-c2ccccc2)cc1)NC(=O)[C@H](Cc1c[nH]c2ccccc12)NC(=O)CCN)C(N)=O (HELM PEPTIDE1{[bAla].W.[O=C([C@H](Cc1ccc(-c2ccccc2)cc1)N[*:1])[*:2]].[N=C(N)NCCCC[C@H](N[*:1])C(=O)[*:2]].[am]}$$$$V2.0) | 2130 nM | 3.77 kcal/mol | -11.5 kcal/mol
N=C(N)NCCCC[C@@H](NC(=O)[C@H](Cc1ccc(-c2ccccc2)cc1)NC(=O)[C@H](Cc1c[nH]c2ccccc12)NC(=O)CCCN)C(N)=O (H-[GABA]W[Bip][d(hArg)]-NH2) | 270 nM | 0.3 kcal/mol | -9.26 kcal/mol
N=C(N)NCCCC[C@H](NC(=O)[C@H](Cc1ccc(-c2ccccc2)cc1)NC(=O)[C@H](Cc1c[nH]c2ccc(O)cc12)NC(=O)CCCN)C(=O)NCC(=O)Nc1ccccc1O (H-[GABA][Trp(5-OH)][Bip][hArg]G-X2) | 191 nM | 2.88 kcal/mol | -12 kcal/mol
N=C(N)NCCCC[C@H](NC(=O)[C@H](Cc1ccc(-c2ccccc2)cc1)NC(=O)[C@H](Cc1c[nH]c2ccc(O)cc12)NC(=O)CCCN)C(=O)NCC(=O)Nc1ccc(CN2CCOCC2)cc1 (H-[GABA][Trp(5-OH)][Bip][hArg]G-{NHPh(4-CH2-morpholino)}) | 106 nM | 1.05 kcal/mol | -10.6 kcal/mol
N=C(N)NCCCC[C@H](NC(=O)[C@H](Cc1ccc(-c2ccccc2)cc1)NC(=O)[C@H](Cc1c[nH]c2ccc(O)cc12)NC(=O)[C@H]1CCC[C@H](N)C1)C(N)=O | 370 nM | -0.67 kcal/mol | -8.1 kcal/mol
Cc1ccc(-c2ccc(C[C@H](NC(=O)[C@H](Cc3c[nH]c4ccc(O)cc34)NC(=O)CCCN)C(=O)N[C@@H](CCCCNC(=N)N)C(N)=O)cc2)cc1 | 708 nM | 1.77 kcal/mol | -10.2 kcal/mol
N=C(N)NCCCC[C@H](NC(=O)[C@H](Cc1ccc(-c2ccccc2)cc1)NC(=O)[C@H](Cc1c[nH]c2ccc(O)cc12)NC(=O)[C@@H]1CC[C@@H](N)C1)C(N)=O | 740 nM | 1.46 kcal/mol | -9.82 kcal/mol
NCCCC[C@H](NC(=O)[C@H](Cc1ccc(-c2ccccc2)cc1)NC(=O)[C@H](Cc1c[nH]c2ccc(O)cc12)NC(=O)CCCN)C(N)=O (H-[GABA][Trp(5-OH)][Bip]K-NH2) | 437 nM | 2.54 kcal/mol | -11.2 kcal/mol
N=C(N)NCCCC[C@H](NC(=O)[C@H](Cc1ccc(-c2ccccc2)cc1)NC(=O)[C@H](Cc1c[nH]c2ccc(O)cc12)NC(=O)CCCN)C(=O)NCC(=O)Nc1ccccc1 (H-[GABA][Trp(5-OH)][Bip][hArg]G-NHPh) | 132 nM | 2.87 kcal/mol | -12.3 kcal/mol
N=C(N)NCCC[C@H](NC(=O)[C@H](Cc1ccc(-c2ccccc2)cc1)NC(=O)[C@H](Cc1c[nH]c2ccc(O)cc12)NC(=O)CCCN)C(N)=O (H-[GABA][Trp(5-OH)][Bip]R-NH2) | 459 nM | 2.35 kcal/mol | -11 kcal/mol
N=C(N)Nc1ccc(C[C@H](NC(=O)[C@H](Cc2ccc(-c3ccccc3)cc2)NC(=O)[C@H](Cc2c[nH]c3ccccc23)NC(=O)CCCN)C(N)=O)cc1 (H-[GABA]W[Bip][Phe(4-guanidino)]-NH2) | 1160 nM | 1.33 kcal/mol | -9.43 kcal/mol
N=C(N)NCCCC[C@H](NC(=O)[C@H](Cc1ccc(-c2ccccc2)cc1)NC(=O)[C@H](Cc1c[nH]c2ccc(O)cc12)NC(=O)CCCN)C(=O)NCC(=O)Nc1ncccc1O (H-[GABA][Trp(5-OH)][Bip][hArg]G-X3) | 488 nM | 0.86 kcal/mol | -9.48 kcal/mol
COc1cc(CNC(=O)CNC(=O)[C@H](CCCCNC(=N)N)NC(=O)[C@H](Cc2ccc(-c3ccccc3)cc2)NC(=O)[C@H](Cc2c[nH]c3ccc(O)cc23)NC(=O)CCCN)cc(OC)c1 (H-[GABA][Trp(5-OH)][Bip][hArg]G-X4) | 307 nM | 2.39 kcal/mol | -11.3 kcal/mol
C[C@H](N)C(=O)N[C@@H](Cc1c[nH]c2ccccc12)C(=O)N[C@@H](Cc1ccc(-c2ccccc2)cc1)C(=O)N[C@@H](CCCCNC(=N)N)C(N)=O (HELM PEPTIDE1{A.W.[O=C([C@H](Cc1ccc(-c2ccccc2)cc1)N[*:1])[*:2]].[N=C(N)NCCCC[C@H](N[*:1])C(=O)[*:2]].[am]}$$$$V2.0) | 3020 nM | 2.01 kcal/mol | -9.54 kcal/mol
N=C(N)NCCCC[C@H](NC(=O)[C@H](Cc1ccc(-c2ccccc2)cc1)NC(=O)[C@H](Cc1c[nH]c2ccccc12)NC(=O)CCCN)C(N)=O (H-[GABA]W[Bip][hArg]-NH2) | 663 nM | 2.27 kcal/mol | -10.7 kcal/mol
N=C(N)NCCCC[C@H](NC(=O)[C@H](Cc1ccc(-c2ccccc2)cc1)NC(=O)[C@H](Cc1c[nH]c2ncccc12)NC(=O)CCCN)C(N)=O (H-[GABA][Trp(7-aza)][Bip][hArg]-NH2) | 16300 nM | 0.74 kcal/mol | -7.27 kcal/mol
COc1ccc2c(C[C@H](NC(=O)CCCN)C(=O)N[C@@H](Cc3ccc(-c4ccccc4)cc3)C(=O)N[C@@H](CCCCNC(=N)N)C(N)=O)c[nH]c2c1 (H-[GABA][Trp(6-OMe)][Bip][hArg]-NH2) | 2460 nM | 2.84 kcal/mol | -10.5 kcal/mol

Source: ChEMBL document CHEMBL4823296, “NMR-Guided Design of Potent and Selective EphA4 Agonistic Ligands” (J Med Chem, 2021)
